The target in the first assay is human RIP1 kinase domain (2-375) (Homo sapiens (Human), UniProt Q13546). The assay is described as follows: biochemical. It is filed as biochemical. The note with it: Table 5; apparent Ki (Morrison tight-binding fit); 50 nM RIP1 kinase domain, 50 uM ATP, 2 hours incubation; read-out: Ki. The essentials: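 50 nM purified kinase domain from baculovirus-infected insect cells, incubated 2 h with compound in 50 mM Hepes pH 7.5, 30 mM MgCl2, 1 mM DTT, 50 uM ATP, 0.002% Brij-35, 0.5% DMSO. ADP formation read by Transcreener FP at 633 nm excitation. Ki^app fitted with the Morrison tight-binding equation.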
human RIP1 kinase domain (2-375), sequence (Q13546 2-375): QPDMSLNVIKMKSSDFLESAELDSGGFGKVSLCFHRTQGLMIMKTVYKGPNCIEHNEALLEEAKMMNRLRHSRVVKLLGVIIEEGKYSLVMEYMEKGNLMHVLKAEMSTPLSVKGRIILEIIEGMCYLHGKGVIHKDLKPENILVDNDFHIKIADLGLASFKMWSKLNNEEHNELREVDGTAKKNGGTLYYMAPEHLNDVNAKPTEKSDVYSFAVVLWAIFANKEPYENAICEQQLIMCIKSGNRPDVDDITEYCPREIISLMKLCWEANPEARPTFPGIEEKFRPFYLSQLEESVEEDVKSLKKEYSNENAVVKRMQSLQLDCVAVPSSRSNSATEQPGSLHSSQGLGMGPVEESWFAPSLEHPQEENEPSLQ
For the compound `CN1C(=O)[C@@H](NC(=O)c2ncn(Cc3ccccc3)n2)CCn2nc(Cn3ccnc3)cc21` [Example 707, (S)-1-benzyl-N-[2-(imidazol-1-ylmethyl)-4-methyl-5-oxo-7,8-dihydro-6H-pyrazolo[1,5-a][1, 3]diazepin-6-yl]-1,2,4-triazole-3-carboxamide], the Ki turned out to be 530 nM.

On to `CN1C(=O)[C@@H](NC(=O)c2cc3c(-c4ccccc4F)cccn3n2)COc2ccccc21` [Example 708, 4-(2-fluorophenyl)-N-[(3S)-5-methyl-4-oxo-2,3-dihydro-1,5-benzoxazepin-3-yl]pyrazolo[1,5-a]pyridine-2-carboxamide], for which the Ki came to 4 nM.

In the case of `CN1C(=O)[C@@H](NC(=O)c2cc3n(n2)CCC[C@@H]3c2ccccc2F)COc2ccccc21` [Example 709, (4R)-4-(2-fluorophenyl)-N-[(3S)-5-methyl-4-oxo-2,3-dihydro-1,5-benzoxazepin-3-yl]-4,5,6,7-tetrahydropyrazolo[1,5-a]pyridine-2-carboxamide], the Ki was 34 nM.

`CN1C(=O)[C@@H](NC(=O)c2cc3n(n2)CCC[C@H]3c2ccccc2F)COc2ccccc21` [Example 710, (4S)-4-(2-fluorophenyl)-N-[(3S)-5-methyl-4-oxo-2,3-dihydro-1,5-benzoxazepin-3-yl]-4,5,6,7-tetrahydropyrazolo[1,5-a]pyridine-2-carboxamide]: the Ki worked out at 9 nM.

On to `CN1C(=O)[C@@H](NC(=O)c2cc3c(cn2)cnn3CCC(F)F)COc2ccccc21` [Example 711, 1-(3,3-difluoropropyl)-N-[(3S)-5-methyl-4-oxo-2,3-dihydro-1,5-benzoxazepin-3-yl]pyrazolo[4,3-c]pyridine-6-carboxamide], for which the Ki was determined as 73 nM.

Take `CN1C(=O)[C@@H](NC(=O)c2cc3c(-c4ccccc4)cccn3n2)COc2ccccc21` [Example 713, 4-phenyl-N-[(3S)-5-methyl-4-oxo-2,3-dihydro-1,5-benzoxazepin-3-yl]pyrazolo[1,5-a]pyridine-2-carboxamide]: the Ki amounted to 5 nM.

In the case of `Cc1cc2n(n1)CC[C@H](NC(=O)c1cc3c(-c4ccccc4)cccn3n1)C(=O)N2C` [Example 714, (S)—N-(2,4-dimethyl-5-oxo-5,6,7,8-tetrahydro-4H-pyrazolo[1,5-a][1,3]diazepin-6-yl)-4-phenylpyrazolo[1,5-a]pyridine-2-carboxamide], the Ki came out at 13 nM.

For the compound `CN1C(=O)[C@@H](NC(=O)c2nc3n(n2)CCNC3c2ccccc2)COc2ccccc21` (stereo partly drawn) [Example 723, N-[(3S)-5-methyl-4-oxo-2,3-dihydro-1,5-benzoxazepin-3-yl]-8-phenyl-5,6,7,8-tetrahydro-[1,2,4]triazolo[1,5-a]pyrazine-2-carboxamide], the Ki came to 206 nM.

As to `CN1C(=O)[C@@H](NC(=O)c2nc3n(n2)CCNC3C(F)(F)F)COc2ccccc21` (stereo partly drawn) [Example 731, N—((S)-5-methyl-4-oxo-2,3,4,5-tetrahydrobenzo[b][1,4]oxazepin-3-yl)-8-(trifluoromethyl)-5,6,7,8-tetrahydro-[1,2,4]triazolo[1,5-a]pyrazine-2-carboxamide], the Ki came out at 300 nM.

`CN1C(=O)[C@@H](NC(=O)c2nc3n(n2)[C@H](c2ccccc2)CCC3)COc2ccccc21` [Example 735, (S)—N—((S)-5-methyl-4-oxo-2,3,4,5-tetrahydrobenzo[b][1,4]oxazepin-3-yl)-5-phenyl-5,6,7,8-tetrahydro-[1,2,4]triazolo[1,5-a]pyridine-2-carboxamide]: the Ki came to 13 nM.

`CN1C(=O)[C@@H](NC(=O)c2ncn(Cc3ccccc3)n2)CCn2nc(CCCN3CCC(F)(F)C3)cc21` [Example 739, 1-benzyl-N-[(6S)-2-[3-(3,3-difluoropyrrolidin-1-yl)propyl]-4-methyl-5-oxo-7,8-dihydro-6H-pyrazolo[1,5-a][1,3]diazepin-6-yl]-1,2,4-triazole-3-carboxamide]: the Ki stood at 36 nM.

Turning to `CN1C(=O)[C@@H](NC(=O)c2ccn(Cc3ccccc3)n2)CCn2nccc21` [Example 740, 1-benzyl-N-[(6S)-4-methyl-5-oxo-7,8-dihydro-6H-pyrazolo[1,5-a][1,3]diazepin-6-yl]pyrazole-3-carboxamide], the Ki was 137 nM.

With `Cc1cc2n(n1)CC[C@H](NC(=O)c1ccn(Cc3ccccc3)n1)C(=O)N2C` [Example 741, 1-benzyl-N-[(6S)-2,4-dimethyl-5-oxo-7,8-dihydro-6H-pyrazolo[1,5-a][1,3]diazepin-6-yl]pyrazole-3-carboxamide], the Ki turned out to be 140 nM.

As for `CN1C(=O)[C@@H](NC(=O)c2cc3c(cn2)CO[C@]3(C)C(F)(F)F)COc2ccccc21` [Example 742, (1S)-1-methyl-N-[(3S)-5-methyl-4-oxo-2,3-dihydro-1,5-benzoxazepin-3-yl]-1-(trifluoromethyl)-3H-furo[3,4-c]pyridine-6-carboxamide], the Ki amounted to 10 nM.

For the compound `CN1C(=O)[C@@H](NC(=O)c2ncc3c(n2)[C@@](C)(C(F)(F)F)OC3)COc2ccccc21` [Example 743, (7S)-7-methyl-N-[(3S)-5-methyl-4-oxo-2,3-dihydro-1,5-benzoxazepin-3-yl]-7-(trifluoromethyl)-5H-furo[3,4-d]pyrimidine-2-carboxamide], the Ki came to 17 nM.

On to `CN1C(=O)[C@@H](NC(=O)c2cc3c(cn2)CO[C@@]3(C)C(F)(F)F)COc2ccccc21` [Example 744, (1R)-1-methyl-N-[(3S)-5-methyl-4-oxo-2,3-dihydro-1,5-benzoxazepin-3-yl]-1-(trifluoromethyl)-3H-furo[3,4-c]pyridine-6-carboxamide], for which the Ki came out at 10 nM.

In the case of `CN1C(=O)[C@@H](NC(=O)c2ncc3c(n2)[C@](C)(C(F)(F)F)OC3)COc2ccccc21` [Example 745, (7R)-7-methyl-N-[(3S)-5-methyl-4-oxo-2,3-dihydro-1,5-benzoxazepin-3-yl]-7-(trifluoromethyl)-5H-furo[3,4-d]pyrimidine-2-carboxamide], the Ki was found to be 12 nM.

Staying with this assay, now noted: tight-binding apparent inhibition constant; human RIP1 kinase domain (2-375) 50 nM, 50 uM ATP, 2 hours; read-out: Ki.
`Cc1cc2n(n1)CC[C@H](NC(=O)c1nc3n(n1)[C@@H](c1ccccc1F)CC3)C(=O)N2C` [Example 666, (5R)-5-(2-fluorophenyl)-N-[(6S)-2,4-dimethyl-5-oxo-7,8-dihydro-6H-pyrazolo[1,5-a][1,3]diazepin-6-yl]-6,7-dihydro-5H-pyrrolo[1,2-b][1,2,4]triazole-2-carboxamide]: the Ki is 40 nM.

On to `Cc1cc2n(n1)CC[C@H](NC(=O)c1nc3n(n1)[C@H](c1ccccc1F)CC3)C(=O)N2C` [Example 667, (5S)-5-(2-fluorophenyl)-N-[(6S)-2,4-dimethyl-5-oxo-7,8-dihydro-6H-pyrazolo[1,5-a][1,3]diazepin-6-yl]-6,7-dihydro-5H-pyrrolo[1,2-b][1,2,4]triazole-2-carboxamide], for which the Ki was determined as 530 nM.

As to `CN1C(=O)[C@@H](NC(=O)c2nc3n(n2)[C@@H](c2ccccc2F)CC3)CCn2nccc21` [Example 668, (5R)-5-(2-fluorophenyl)-N-[(6S)-4-methyl-5-oxo-7,8-dihydro-6H-pyrazolo[1,5-a][1,3]diazepin-6-yl]-6,7-dihydro-5H-pyrrolo[1,2-b][1,2,4]triazole-2-carboxamide], the Ki is 22 nM.

Take `CN1C(=O)[C@@H](NC(=O)c2nc3n(n2)[C@H](c2ccccc2F)CC3)CCn2nccc21` [Example 669, (5S)-5-(2-fluorophenyl)-N-[(6S)-4-methyl-5-oxo-7,8-dihydro-6H-pyrazolo[1,5-a][1,3]diazepin-6-yl]-6,7-dihydro-5H-pyrrolo[1,2-b][1,2,4]triazole-2-carboxamide]: the Ki worked out at 610 nM.

These data come from patent US10988459B2 (priority 2015, dated 2021).
